Reference: article PMC11305846 (ALTEX, 2024)

Columns and labels:
iPSC-CM = test: Ca2+ flux phenotypic assay; conditions: for beat frequency from Ca2+ flux traces: 100 μM, 90 minutes after treatment, vehicle ~30 beats per minute
iPSC-Hep = test: High-content imaging phenotypic assay in iPSC-derived hepatocytes, 48 h exposure; assay type: cell-based, human; conditions: 0.1-100 μM, benchmark 1 SD

Structure (SMILES)	negative chronotropy: effect that reached benchmark response (5% change) (iPSC-CM; 0.1-100 μM, 90 min)	beat frequency from Ca2+ flux traces (iPSC-CM)	QT prolongation: effect that reached benchmark response (5% change) (iPSC-CM; 0.1-100 μM, 90 min)	concentration-response phenotypic effect on cell mean area (iPSC-Hep)
O=S(=O)(O)CCC(F)(F)C(F)(F)C(F)(F)C(F)(F)C(F)(F)C(F)(F)C(F)(F)C(F)(F)F [8:2 FTS, 8:2 Fluorotelomer sulfonic acid]	decreased peak frequency	–	–	–
N.O=C(O)C(F)(F)C(F)(F)C(F)(F)C(F)(F)C(F)(F)C(F)(F)C(F)(F)F [NH4PFOA, Ammonium perfluorooctanoate]	decreased peak frequency	–	–	–
O=S(=O)(O)C(F)(F)C(F)(F)C(F)(F)C(F)(F)F [PFBS, Perfluorobutanesulfonic acid]	decreased peak frequency	24 beats per minute	–	–
O=S(=O)([O-])C(F)(F)C(F)(F)C(F)(F)C(F)(F)C(F)(F)C(F)(F)C(F)(F)C(F)(F)C(F)(F)C(F)(F)F.[Na+] [PFDS-Na, Sodium perfluorodecanesulfonate]	decreased peak frequency	–	QT prolongation	–
O=C(O)C(F)(F)C(F)(F)OC(F)(F)F [PFMPA, Perfluoro-3-methoxypropanoic acid]	decreased peak frequency	–	–	–
O=C(O)C(F)(F)C(F)(F)C(F)(F)C(F)(F)C(F)(F)C(F)(F)C(F)(F)F [PFOA, Perfluorooctanoic acid]	decreased peak frequency	–	–	increased mean cell area
O=C(O)C(F)(F)C(F)(F)C(F)(F)C(F)(F)C(F)(F)C(F)(F)C(F)(F)C(F)(F)C(F)(F)C(F)(F)C(F)(F)C(F)(F)C(F)(F)F [PFTeDA, Perfluorotetradecanoic acid]	decreased peak frequency	–	–	–
O=C(O)C(F)(F)C(F)(F)C(F)(F)C(F)(F)C(F)(F)C(F)(F)C(F)(F)C(F)(F)C(F)(F)C(F)(F)C(F)(F)C(F)(F)F [PFTiDA, Perfluorotridecanoic acid]	decreased peak frequency	12 beats per minute	–	–
